What was measured:
CD8^+ T-lymphocytes = assay: IFN-γ and IL-2 protein in media; format: cell-based, mouse; conditions: 0.5 mM, 24 h
Description: (§1) Total splenocytes were activated for 48 h with 1000 nM SIINFEKL and then expanded for a further 4 days in the presence of IL-2 followed by treatment 0.5 mM of S-2HG-octyl R-2HG-octyl ester ester for 24 h. OT-I CD8^+ T-lymphocytes were incubated with target and control cells for 4 hours. n=3 mice per condition. […] Cells were activated for 48 h with αCD3+αCD28 antibodies and then expanded for a further 4 days in the presence of IL-2 followed by treatment with the indicated concentration of S-2HG-octyl ester or R-2HG-octyl ester for 24 hours. n≥16 mice.
CD8^+ T-cells were expanded for 4 days and then treated for 16 h with S-2HG octyl ester or R-2HG octyl ester. Glucose and lactate levels in culture medium were measured with a Dade-Behring Dimension RXL analyser. Changes in metabolite concentrations relative to fresh media were normalized to viable cell counts. VEGF, IL-2 and IFN-γ protein levels in media were determined using the following kits from MesoScale Discovery: K150BMC-2 for VEGF, K15048D-2 for IFN-γ and K152QQD-2 for IL-2. Values were normalized to viable cell counts.

mTOR = mTOR signalling immunoblot; format: cell-based, mouse; conditions: 100 μM to 500 μM
Description: (§2) Nuclear and cytosolic fractions were prepared from cells with the NE-PER kit (Thermo Scientific) and separated by SDS-PAGE. Proteins were transferred to PVDF membranes and then blocked in 5% milk prepared in phosphate-buffered saline (PBS) plus 0.05% Tween 20. Membranes were then incubated with primary antibodies overnight at 4° C. and horseradish peroxidase (HRP)-conjugated secondary antibodies for 1 h the next day. The following primary antibodies were used at a dilution of 1:1000: HIF1α (Novus), HIF2α (Novus), PDH-E1α (Abcam), PDH-E1α pS232 (Calbiochem), LaminB1 (Abcam), HDAC1 (Abcam), β-tubulin (Abcam), 4E-BP1 (Cell Signalling), phospho-4E-BP1 (S65) (Cell Signalling), phospho-4E-BP1 (T37/T46) (Cell Signalling) S6K (Cell Signalling), phopho-S6K (T389) (Cell Signalling), phopho-S6K (S371) (Cell Signalling).

HIF-2a = assay: Immunoblot on nuclear extracts for HIF-2a in treated CD8+ T-lymphocytes; format: cell-based, mouse; conditions: 0.5 mM, 1 day or 7 days of treatment
Description: The arrow indicates HIF-2a protein.
as §2

PDH-E1α = assay: Immunoblot for phospho-PDH E1α (S232) in treated CD8+ T-lymphocytes; format: cell-based, mouse; conditions: 16 hours treatment
Description: FIG. 6A showns immunoblot analysis for HIF-1α, HDAC1, phospho-PDH E1α (S232) and total PDH-E1α in response to increasing concentrations of S-2HG-octyl ester or R-2HG-octyl ester, or 10 mM of the free acid forms of S-2HG or R-2HG for 16 hours. Cells were activated for 48 h with αCD3+αCD28 antibodies and then expanded for a further 4 days in the presence of IL-2 followed by treatment with the indicated concentration of S-2HG-octyl ester or R-2HG octyl ester, or 10 mM of the free acid forms of S-2HG or R-2HG for 16 hours. The arrow indicates HIF-1α protein.
as §2

EG7-OVA cells = assay: In vitro cytotoxicity assay (specific killing by OT-I CD8+ T-lymphocytes); format: cell-based, mouse; conditions: 0.5 mM for 24 h, 4 hours with target and control cells
Description: as §1
Total splenocytes from OT-I mice were activated with SIINFEKL-peptide for 48 h and expanded for a further 4 days in IL-2 containing medium. OT-I-specific CD8^+ T-cells were then treated for 24 h with or without 0.5 mM S-2HG-octyl ester or R-2HG-octyl ester and then incubated with target (EG7-OVA, CFSE-low) and control (EL4, CFSE high) cells. Specific lysis was calculated by normalization of the loss in signal of the CFSE-low population relative to the CFSE-high population after co-culture of 4 hours with the vehicle or S-2HG-octyl ester or R-2HG-octyl ester-treated OT-I-specific CD8^+ T-cells.

human CD8^+ T cells = assay: Experiments with human CD8+ T cells (CCR7, CD45RO flow cytometry); format: cell-based; conditions: 14 days; 600 μM S-2HG-octyl ester or 800 μM R-2HG-octyl ester versus vehicle
Description: Numbers in dot plots represent the percentage of cells present in the corresponding quadrant defined by CCR7 and CD45RO expression.
Human CD8^+ T cells were magnetically isolated from blood of healthy donors after gradient centrifugation. Incubation with microbeads conjugated to anti-human CD8 antibodies (Miltenyi 130-097-057) was followed by magnetic bead isolation on a MACS column. Purified human CD8^+ T cells were activated with αCD3 and αCD28 coated beads (Dynabeads, 111.61D) and expanded in the presence of recombinant human IL-2 (30 Ul/mL, Roche 11011456001).
Cells were stained and acquired on a Fortessa (BD Biosciences). The following fluorophores and fluorophore-conjugated antibodies were used: anti-CD62L (Biolegend, MEL-14), anti-CD44 (Biolegend, IM7), anti-CD8a (Biolegend, 53-6.7), anti-CD45.1 (Biolegend, A20), anti-CD45.2 (Biolegend, 104), anti-CD127 (Biolegend, A7R34), anti-KLRG1 (Biolegend, 2F1/KLRG1), anti-CD19 (Biolegend, 6D5), anti-Bcl-2 (Biolegend, BCL/10C4), Eomes (eBioscience, Danlimag), PD-1 (Biolegend, 29F.1A12), […], H-2Kb/SIINFEKL Pentamer-PE (Proimmune, F093-2A), CFSE (Life Technologies), LIVE/DEAD Violet (Life Technologies), PI-AnnexinV (Biolegend, 640928), anti-Bcl-xl-PE (Cell Signalling Technologies, 54H6). For staining of nuclear-located marker Eomes, the Transcription Factor Staining Buffer Set (eBioscience) was used, according to the manufacturer's instructions. For staining of intracellular cytokines, OT-I cells were re-stimulated with SIINFEKL peptide for 4 h with GolgiStop solution (BD). For ^1H-NMR experiments, CD8^+ T-lymphocytes were sorted from total splenocytes by immunostaining with anti-mouse CD8-AF647 (Biolegend) on a MoFlo (Beckman Coulter). Cells were then activated and cultured as described above. For staining of human T cells, CD8^+ T cells were incubated at 37 C for 30 minutes in the presence of anti-CCR7 antibody (eBioscience 12-1979-41), followed by staining with anti-CD45RO antibody (Biolegend, UCHL1).
For experiments with human CD8^+ T cells, cells were magnetically isolated, activated and plated at a concentration of 1×10^6 cells per mL in the presence of 30 UI/mL of recombinant human IL-2. […] On day 14, the surface expression of CCR7 and CD45RO on alive CD8^+ cells was measured by flow cytometry.

Row | Structure (SMILES) | production of interleukin-2 (IL-2) (CD8^+ T-lymphocytes) | secretion of interferon-γ (IFN-γ) (CD8^+ T-lymphocytes) | mTOR signalling (mTOR) | abundance of HIF-2a protein (HIF-2a) | phosphorylation of PDH-E1a (PDH-E1α) | lytic ability of antigen specific OT-I CD8+ T-cells (EG7-OVA cells) | expression of CCR7 (human CD8^+ T cells) | expression of CD45RO (human CD8^+ T cells)
1 | CCCCCCCCOC(=O)[C@H](O)CCC(=O)O [R-2HG-octyl ester] | increased | decreased | does not inhibit | increase in the abundance | increased | markedly lower | induced the expression | induced the expression
2 | CCCCCCCCOC(=O)[C@@H](O)CCC(=O)O [S-2HG-octyl ester, S-2HG octyl ester] | increased | decreased | does not inhibit | increase in the abundance | increased | markedly lower | induced the expression | induced the expression

Reference: patent US20190316085A1, “Methods Of T-Lymphocyte Expansion” (Cambridge Enterprise Limited, priority 2015, published 2019)
